Data: patent US11655215B2, “Photostabilizing compounds, compositions, and methods” (ELC MANAGEMENT LLC, priority 2018, dated 2023)

How the values were obtained:
Type in all cases: physicochemical
[1] = Singlet oxygen generation quenching, Stern-Volmer, Pp-MeIX in acetonitrile; details: air saturated acetonitrile, 532 nm excitation, 1O2 phosphorescence at 1270 nm, slope of FIG. 7
Experimental: (§1) Singlet oxygen phosphorescence measurements of the air saturated acetonitrile solutions of the dimethyl ester derivative of PpIX (Pp-MeIX) at the concentration optimal for light absorption and Compound 1 at various concentrations were performed on a modified Fluorolog-3 spectrometer (HORIBA Jobin Yvon) in conjunction with a NIR sensitive photomultiplier tube (H102330A-45, Hamamatsu). A Spectra Physics GCR-150-30 Nd:YAG laser (532 nm, ca. 5 mJ per pulse, 7 ns) was used for pulsed excitation to collect ^1O2 phosphorescence decay traces at 1270 nm which were stored on a digital oscilloscope (TDS 360 from Tektronics). The Stern-Volmer plots of singlet oxygen phosphorescence were illustrated in FIG. 7. The Stern-Volmer constant Ksv was calculated from the slope of the plot in FIG. 7 to be 57±2 M^−1, which is a direct measurement of the singlet oxygen suppression efficiency of Compound 1.

[2] = Keto-Avobenzone triplet state quenching (laser flash photolysis, transient absorption); details: deoxygenated acetonitrile, avobenzone 0.25 mM, 266 nm flash photolysis, monitored at 380 nm; slope of FIG. 3
Experimental: The deoxygenated acetonitrile solutions of avobenzone at 0.25 mM and Compound 1 at various concentrations were measured for transient absorption on a homebuilt system (Y. Yagci, S. Jockusch and N. J. Turro, Macromolecules, 2007, 40, 4481-4485; hereby incorporated by reference in its entirety). Keto-Avobenzone was generated by photolysis of enol-Avobenzone at 350 nm. Laser flash photolysis of keto-Avobenzone was conducted at 266 nm with 5 ns pulse width as shown below:
The decay traces of the triplet-absorption of keto-Avobenzone was monitored at 380 nm.

[3] = PpIX singlet excited state quenching (TCSPC fluorescence lifetimes); details: acetonitrile, excitation 496 nm, fluorescence at 630 nm; slope of FIG. 5
Experimental: The acetonitrile solutions of PpIX at a concentration optimal for light absorption and Compound 1 at various concentration were measured on OB920 TR-SPC (Edinburgh Analytical Instruments) by time-correlated single photon counting (TCSPC) using a pulsed LED (496 nm) for excitation (PicoQuant) for the corresponding fluorescence lifetimes. The fluorescence signal was collected at 630 nm.

[4] = Fluorescence quenching of retinol (TCSPC fluorescence lifetimes); details: THF, retinol 0.2 mM, excitation 335 nm, fluorescence at 483 nm; slope of FIG. 2
Experimental: The THF solutions of retinol at 0.2 mM and Compound 1 at various concentration were measured on OB920 TR-SPC (Edinburgh Analytical Instruments) by time-correlated single photon counting (TCSPC) using a pulsed LED (335 nm, 5 MHz) for excitation (PicoQuant) for the corresponding fluorescence lifetimes. The fluorescence signal was collected at 483 nm.

[5] = PpIX triplet state quenching (transient absorption); details: Argon saturated acetonitrile, 532 nm excitation, transient absorbance at 630 nm; slope of FIG. 4
Experimental: The Argon saturated acetonitrile solutions of Protoporphyrin IX (PpIX) at a concentration optimal for light absorption and Compound 1 at various concentrations were measured for transient absorption on a homebuilt system (Y. Yagci, S. Jockusch and N. J. Turro, Macromolecules, 2007, 40, 4481-4485; hereby incorporated by reference in its entirety). Triplet lifetimes were measured at 532 nm (7 ns pulse length) and the transient absorbance was monitored at 630 nm.

[6] = Singlet oxygen quenching rate constant in acetonitrile (phosphorescence lifetime); details: air saturated acetonitrile, Pp-MeIX, 1O2 phosphorescence lifetime at 1270 nm; slope of FIG. 9B
Experimental: as §1, with “Tektronics).” for “Tektronics). The Stern-Volmer plots of singlet oxygen phosphorescence were illustrated in FIG. 7. The Stern-Volmer constant Ksv was calculated from the slope of the plot in FIG. 7 to be 57±2 M^−1, which is a direct measurement of the singlet oxygen suppression efficiency of Compound 1.”

[7] = Singlet oxygen generation quenching, Stern-Volmer, Pp-MeIX in CDCl3; details: air saturated CDCl3, Pp-MeIX, 532 nm excitation, 1O2 phosphorescence at 1270 nm; slope of FIG. 8B
Experimental: as §1, with “saturated CDCl3” for “saturated acetonitrile”, “FIG. 8B.” for “FIG. 7.”, “FIG. 8B” for “FIG. 7”, “be 14±1” for “be 57±2”

Structure (SMILES): CCCCC(CC)COC(=O)/C(C#N)=C1/c2ccccc2-c2cccnc21 (stereo not shown) [Compound 1]
- Stern-Volmer constant Ksv (singlet oxygen suppression efficiency) [1]: 57 ± 2 M⁻¹
- quenching rate constant kq of keto-Avobenzone triplet states [2]: (3.5±0.2)×10^9 M^−1s^−1
- bimolecular quenching rate constant Kq of quenching of PpIX fluorescence (singlet excited state) [3]: 2.5±0.1×10^9 M^−1s^−1
- bimolecular quenching rate constant Kq of quenching of retinol fluorescence [4]: (9.0±0.3)×10^9 M^−1s^−1
- quenching rate constant kq of PpIX triplet states [5]: 2.7±0.1×10^7 M^−1s^−1
- bimolecular quenching rate constant kq of singlet oxygen quenching [6]: 1.5±0.1×10^5 M^−1s^−1
- Stern-Volmer constant Ksv (singlet oxygen suppression efficiency) [7]: 14 ± 1 M⁻¹
